Assay results taken from patent US12234248B2, “Co-crystal compounds comprising lithium ions and isonicotinamide” (UNIVERSITY OF LIMERICK, priority 2017, dated 2025).
“And” between values parts separate entries of the source, which are not always exact repeats. Equal entries are not always repeated.

Columns and labels:
[1] = Stability of crystalline material under warm humid conditions (40° C., 75% relative humidity), PXRD before and after; assay type: physicochemical; settings: for Stable?: stored at 40° C., 75% relative humidity, stable = retained crystal form for at least two weeks by PXRD
Procedure: The stability of these compounds under warm humid conditions was assessed as follows:
The crystalline material was stored at 40° C. in an atmosphere of 75% relative humidity.
Compounds were classed as stable if they retained their crystal form for at least two weeks as verified by examination of PXRD patterns collected before and after exposure to humidity.
It can be seen that the pattern obtained after 2 months at 75% relative humidity and 40° C. (upper trace) in this case is different.

[2] = Bioavailability in vivo in rats: lithium in plasma and brain by ICP-OES after oral administration
Procedure: Male Sprague-Dawley rats, weighing 240-290 g, were treated through gastric intubation with formulations of lithium and compared with lithium carbonate as a reference. For each formulation a group of 12 rats was treated. 4 mEq/kg of lithium were orally administered, after suspension in 2 mL of corn seeds oil (“Olio Cuore”).
Four intervals' post-administration time (2, 24, 48 and 72 hours) were considered and three rats for each of them, employing the protocol used by Zaworotko and coworkers (Smith et al., Mol. Pharmaceutics 2013, 10, 4728-4738). At each time interval blood samples were collected through intra-cardiac […], these were treated with 50 μL of sodium heparin and centrifuged for 10 min at 1600 rpm. Plasma samples of approximately […] each were thus obtained. The brain was explanted in toto with perfusion with phosphate buffered saline (PBS) in order to preserve it in a viable state. The plasma and brain samples were immediately frozen at a temperature of −80° C., after measuring the weight of the brains.
In order to determine the concentration of the lithium by means of the ICP-OES (Inductively Coupled Plasma Optical Emission Spectometry) analysis, plasma and brain samples were purified and mineralized, respectively to obtain solutions suitable for analysis.
A 0.5 mL aliquot was taken from each sample, to which were added equal amounts of MilliQ water and concentrated nitric acid, in order to bring the lithium ion in solution in the form of LiNO3 and to obtain the precipitation of the proteins. At this point, each sample was sonicated for 10 min in an ultrasonic bath and diluted to a volume of 5.0 mL.
All samples were subjected to centrifugation for a period of 40 min, at a rotational speed of 6000 rpm, to obtain complete plasma proteins/solution separation. At the end supernatant liquid containing lithium was diluted to a final volume of 15 mL by adding MilliQ water. The obtained solutions were stored at a temperature of 4° C. until analysis.
The purpose of this phase was to obtain liquid samples, suitable to ICP-OES analysis, containing lithium in solution, starting from the solid organic tissue of the brain. The mineralization process allows the complete degradation of organic substances until the total transformation into simple inorganic substances.
The first operation performed was that the drying of the fabric, obtained through the use of a digester open PerkinElmer SPB 100-12: each sample of brain has been inserted in special containers Digitube™ 100 mL and maintained at a temperature of 80° C. for 120 min.
The second step involved the mineralization true and proper brain: each sample were added to 10 mL of concentrated nitric acid and 1.0 mL of hydrogen peroxide, then the system was brought to a temperature of 120° C. for 120 min. until the complete mineralization. With this procedure you get the desired biological degradation of organic compounds and the consequent passage of lithium in solution. The solutions thus obtained were collected, brought to a final volume of 20 mL with MilliQ water and preserved at a temperature of 4° C. until time of analysis.
In order to obtain the determination of lithium ion concentrations in the samples previously prepared, optical emission spectrometry inductively coupled plasma ICP-OES was used (PerkinElmer Optima 8000 spectrometer).
The analysis was conducted at the fixed wavelength of lithium (λ=670.784 nm) and the intensity of the radiation emitted by each sample was measured and compared standard solutions.
Plasma and brain concentration data were processed using a non-compartmental approach using WinNonlin® software (Pharsight Corporation, USA) and Microsoft Excel XP (Microsoft Corporation, […]).

[3] = rat brain, 4 mEq/kg lithium oral, non-compartmental
[4] = rat plasma, 4 mEq/kg lithium oral, non-compartmental

Stable? [1] | Molecule | further results
No | [Li(hydrogen maleate)(sarcosine)(water)] [Compound 27] | 
No | NC(=O)c1ccncc1.NC(=O)c1ccncc1.NC(=O)c1ccncc1.NC(=O)c1ccncc1.NC(=O)c1ccncc1.NC(=O)c1ccncc1.NC(=O)c1ccncc1.NC(=O)c1ccncc1.O=C([O-])c1ccccc1O.O=C([O-])c1ccccc1O.O=C([O-])c1ccccc1O.O=C([O-])c1ccccc1O.[Li+].[Li+].[Li+].[Li+] [Compound 32, [Li2(salicylate)2(isonicotinamide)4]2] | 
No | CNCC(=O)O.O.O=C([O-])c1cccnc1.[Li+] [Compound 9, [Li(nicotinate)(sarcosine)(water)]n] | 
No | [(imidazolium)2^+(Li(hydrogen malate)2(water))^−] [Compound 33] | 
Yes | O=C([O-])CCC(=O)[O-].[Li+].[Li+] [Compound 16, [Li2 (succinate)]n] | 
No | {[Li(malate) (water)2]•(imidazolium)}n [Compound 26] | 

Further lines, the molecule ahead of its results:

Molecule | Stable? [1] | further results
O=C([O-])[O-].[Li+].[Li+] [Lithium carbonate, lithium carbonate, reference compound] |  | Cmax (brain) [2, 3]: 5.9900 µg/g; Tmax (brain) [2, 3]: 24 h; t½_Lambda_z (brain) ([2]; rat brain, 4 mEq/kg lithium oral, terminal phase): 13.7913 h; AUClast (brain) ([2]; rat brain, 4 mEq/kg lithium oral, time 0 to last quantifiable point): 232.4100 mg·h/g; Relative Brain BA (UL crystal forms, oral vs Li2CO3, oral) ([2]; rat brain, relative to lithium carbonate): 100.00%; Cmax (plasma) [2, 4]: 8413.3 ng/mL; Tmax (plasma) [2, 4]: 24 h; t½_Lambda_z (plasma) ([2]; rat plasma, 4 mEq/kg lithium oral, terminal phase): 7.3913 h; Relative Plasma BA (UL crystal forms, oral vs Li2CO3 oral) ([2]; rat plasma, relative to lithium carbonate): 100.00%; BRAIN CONC., Time(h) 2.00 ([2]; rat, 4 mEq/kg lithium oral, 2 h, lithium in brain, individual rats (three per time)): 0.60 µg/g and 1.43 µg/g and 0.68 µg/g; PLASMA CONC, Time(h) 2.00 ([2]; rat, 4 mEq/kg lithium oral, 2 h, lithium in plasma, individual rats (three per time)): 3020 ng/mL and 4820 ng/mL and 2720 ng/mL; BRAIN CONC., Time(h) 24.00 ([2]; rat, 4 mEq/kg lithium oral, 24 h, lithium in brain, individual rats (three per time)): 7.89 µg/g and 4.55 µg/g and 5.53 µg/g; PLASMA CONC, Time(h) 24.00 ([2]; rat, 4 mEq/kg lithium oral, 24 h, lithium in plasma, individual rats (three per time)): 8720 ng/mL and 5320 ng/mL and 11200 ng/mL; BRAIN CONC., Time(h) 48.00 ([2]; rat, 4 mEq/kg lithium oral, 48 h, lithium in brain, individual rats (three per time)): 3.35 µg/g and 2.89 µg/g and 3.43 µg/g; PLASMA CONC, Time(h) 48.00 ([2]; rat, 4 mEq/kg lithium oral, 48 h, lithium in plasma, individual rats (three per time)): 1290 ng/mL and 1180 ng/mL and 1600 ng/mL; BRAIN CONC., Time(h) 72.00 ([2]; rat, 4 mEq/kg lithium oral, 72 h, lithium in brain, individual rats (three per time)): 0.54 µg/g and 0.52 µg/g and 0.55 µg/g; PLASMA CONC, Time(h) 72.00 ([2]; rat, 4 mEq/kg lithium oral, 72 h, lithium in plasma, individual rats (three per time)): 140 ng/mL and 60 ng/mL and 80 ng/mL
CNCC(=O)O.O.O=C([O-])c1ccc(O)cc1.[Li+] [Compound 19, [Li(sarcosine)(4-hydroxybenzoate)(water)]n] | No | 
O=C(O)[C@@H]1CCCN1.O=C([O-])c1ccccc1O.[Li+] [Compound 14, [Li(salicylate)(L-proline)]n] | Yes | 
Li(adeninate)(water)3 [Compound 8] | No | 
O=C([O-])c1ccccc1.[Li+] [Compound 18, [Li (benzoate)]n] | Yes | 
[Li(pyridoxinate)(water)]n [Compound 10] | No | 
O=C(O)C(=O)O.O=C(O)C(=O)O.O=C([O-])C(=O)O.[Li+].c1c[nH]cn1.c1c[nH]cn1 [Compound 11, [(imidazolium)2^+(Li(hydogen oxalate)(oxalate))^−(oxalic acid)]] | No | PXRD pattern after storage compared with initial pattern ([1]; after 2 months at 75% relative humidity and 40° C.): different
NC(=O)c1ccncc1.O.O=C([O-])/C=C\C(=O)O.[Li+] [Compound 22, [Li(maleate)(isonicotinamide) (water)]n] | No | 
CC(O)C(=O)[O-].CC(O)C(=O)[O-].NC(N)=O.O.O.[Li+].[Li+] (stereo not shown) [Compound 21, [(Li2(lactate)2(water)2)(urea)]n] | No | 
[Li(camphorsulfonate)(water)2] [Compound 29] | No | 
CC1(C)C2CCC1(CS(=O)(=O)[O-])C(=O)C2.CNCC(=O)O.O.O.[Li+] (stereo not shown) [Compound 30, [Li(camphorsulfonate)(sarcosine)(water)2]] | No | 
CC1=CC(=O)[N-]S(=O)(=O)O1.O.[Li+] [Compound 23, [Li(acesulfame)(water)]n] | No | 
CC1(C)C2CCC1(CS(=O)(=O)[O-])C(=O)C2.CC1(C)C2CCC1(CS(=O)(=O)[O-])C(=O)C2.NC(N)=O.NC(N)=O.O.O.[Li+].[Li+] (stereo not shown) [Compound 28, [Li2(camphorsulphonate)2(urea)2 (water)2]] | No | 
[Li2 (oxalate)]n [Compound 17] | Yes | 
